Consider two compounds from ChEMBL document CHEMBL5674870, “Uropathogenic E. coli (UPEC) Infection Induces Proliferation through Enhancer of Zeste Homologue 2 (EZH2)” (PLoS One, 2016).

Calls of active or inactive are those of the source. No cut-off for these calls is given here.

The target of series [1] is Histone-lysine N-methyltransferase EZH2 (Homo sapiens) (UniProt Q15910). Description: Inhibition of EZH2 in human HT-5637 cells assessed as decrease in uropathogenic Escherichia coli infection-induced host cell proliferation at 500 nM measured 24 to 72 hrs after infection by immunofluorescence analysis. Format: cell-based. Particulars: time 24-72 hrs.
Series [2] shares this target. In words: Inhibition of EZH2 in human HT-5637 cells assessed as decrease in uropathogenic Escherichia coli infection-induced WNT3A mRNA level by qRT-PCR analysis. Format: cell-based. In general terms: In qPCR the cycle at which signal appears reflects the starting amount.
The nature of series [3]: Inhibition of KDM6A/6B in human HT-5637 cells assessed as increase in uropathogenic Escherichia coli infection-induced host cell proliferation at 100 nM measured 24 to 72 hrs after infection by immunofluorescence analysis. Format: toxicity, cell-based. Particulars: human, 5637, 0.1 µM, time 24-72 hrs.
A short description of series [4]: Inhibition of KDM6A/6B in human HT-5637 cells assessed as increase in uropathogenic Escherichia coli infection-induced WNT3A mRNA level by qRT-PCR analysis. Format: toxicity, cell-based.

Histone-lysine N-methyltransferase EZH2 (Homo sapiens), sequence (Q15910 whole entry, looked up): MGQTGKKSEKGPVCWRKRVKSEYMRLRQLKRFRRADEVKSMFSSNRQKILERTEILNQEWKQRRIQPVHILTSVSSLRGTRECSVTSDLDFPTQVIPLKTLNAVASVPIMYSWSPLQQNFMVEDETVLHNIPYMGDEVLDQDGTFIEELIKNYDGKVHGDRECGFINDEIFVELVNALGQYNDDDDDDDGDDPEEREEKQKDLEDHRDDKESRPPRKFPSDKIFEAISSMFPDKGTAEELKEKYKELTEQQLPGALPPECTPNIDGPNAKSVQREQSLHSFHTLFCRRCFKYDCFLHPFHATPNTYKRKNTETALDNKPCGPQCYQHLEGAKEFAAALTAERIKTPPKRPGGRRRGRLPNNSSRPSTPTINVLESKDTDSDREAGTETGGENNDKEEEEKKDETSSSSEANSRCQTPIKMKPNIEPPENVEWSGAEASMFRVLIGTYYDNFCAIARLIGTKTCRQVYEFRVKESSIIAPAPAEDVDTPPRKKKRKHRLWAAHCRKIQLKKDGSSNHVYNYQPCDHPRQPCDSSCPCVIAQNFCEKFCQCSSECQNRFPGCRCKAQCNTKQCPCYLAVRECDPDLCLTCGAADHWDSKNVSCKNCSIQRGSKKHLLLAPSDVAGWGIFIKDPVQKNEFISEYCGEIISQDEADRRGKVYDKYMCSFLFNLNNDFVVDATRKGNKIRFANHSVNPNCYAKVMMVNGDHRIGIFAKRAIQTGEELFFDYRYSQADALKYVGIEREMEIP

Take `CCCc1cc(C)[nH]c(=O)c1CNC(=O)c1cc(-c2ccc(N3CCN(C(C)C)CC3)nc2)cc2c1cnn2C(C)C`: the inhibition entry in series [1] and in series [2] was “Active” in each case.

For `CCOC(=O)CCNc1cc(N2CCc3ccccc3CC2)nc(-c2ccccn2)n1`, the “inhibition (INH)” value in series [3] and in series [4] was “Active” throughout.
